Measured values from patent publication US8999243B2, “Blood coagulation system analyzing method and blood coagulation system analyzing device” (Sony Corporation, priority 2011, dated 2015).

Key:
[1] = system: platelets in sample blood (whole blood); assay: Dielectric measurement (complex permittivity) of blood coagulation with platelet activating agent; type: cell-based, human; conditions: frequency 10.7 MHz
Method: By using an evacuated blood collection tube treated with use of sodium citrate as an anticoagulant, blood was collected from the healthy person and the patient with thrombocytopenia (the number of platelets in 1 μL of blood was 1.2×10^4) as a whole blood sample. Next, 0.25 M of a calcium chloride aqueous solution was added (85 μL per 1 mL of blood) to the sample blood whose temperature was kept at 37° C. and a blood coagulation reaction was started. The platelet activating agent (ADP) was so added as to be mixed in the calcium chloride aqueous solution (10 μM per 1 mL of blood). Immediately after the start of the blood coagulation reaction, measurement was performed for 60 minutes by using an impedance analyzer (Agilent Corporation, 4294A) under the following condition: temperature was 37° C.; frequency range was 40 Hz to 110 MHz; and measurement time interval was one minute.

[2] = system: platelets in sample blood / platelet poor blood; assay: Rheometer (free damped oscillation type) measurement of viscoelasticity change / coagulation time; type: cell-based, human
Method: By using an evacuated blood collection tube treated with use of sodium citrate as an anticoagulant, blood was collected from the healthy person and the patient with thrombocytopenia (the number of platelets in 1 μL of blood was 1.2×10^4) as a whole blood sample. Furthermore, blood cells and platelets were separated from the whole blood sample to prepare platelet poor plasma. The sample blood was centrifuged under a condition of 500 G and five minutes to be separated into blood cells and platelet rich plasma (PRP). The plasma was centrifuged under a condition of 2000 G and 30 minutes and sedimentation of the platelets was caused to obtain the platelet poor plasma (PPP). Measurement was performed by using a rheometer of the free damped oscillation type. The coagulation time was obtained by observing a change in the viscoelasticity and compared with the result by the dielectric measurement.

Nc1ncnc2c1ncn2[C@@H]1O[C@H](COP(=O)(O)OP(=O)(O)O)[C@@H](O)[C@H]1O [ADP, adenosine diphosphate]
coagulation time with ADP addition ([1]; sample blood of patient with thrombocytopenia (1.2×10^4 platelets in 1 μL), ADP added): 38 min
change of coagulation time due to ADP addition (dielectric measurement) ([1]; sample blood of patient with thrombocytopenia): shortening of the coagulation time was found
average of the coagulation time when the ADP was added ([1]; sample blood of plural healthy persons, ADP 10 μM per 1 mL of blood in calcium chloride solution, 37° C., without ADP 31 minutes): 17 min
change of coagulation time due to ADP addition (dielectric measurement) ([1]; sample blood of plural healthy persons): shortening of the coagulation time
change of coagulation time due to ADP addition (rheometer) ([2]; platelet poor blood (cleaned red blood cells added to platelet poor plasma)): not observed
change of coagulation time due to ADP addition (rheometer) ([2]; sample blood of the healthy person): shortening of the coagulation time
